Measurements taken from patent US11413278B2, “Compounds and methods for promoting stress resistance” (priority 2015, dated 2022).
Entries after “also recorded” stand apart in the source; their conditions may differ. Read-outs that look alike come from different tables or passages of the source.

Assays:
human PARP1 = target: T1, human PARP1 (Homo sapiens, UniProt P09874); experiment: PARP inhibitor assay (HT Fluorescent Homogeneous PARP Inhibition Assay Kit); format: biochemical; details: for L = PARP inhibition: score
T1 construct: purchased Trevigen
How it was run: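 Compounds (10 μM final) incubated 30 min, room temperature, dark, with human PARP1, nicotinamide adenine dinucleotide and activated DNA. Fluorescent signal generated by 1 hr cycling with diaphorase and resazurin, then reaction stopped.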

human protein targets = details: PubChem database queries; cited from earlier work
[1] = system: PC12 cells expressing poly(Q)103-Htt-EGFP; experiment: Poly(Q) toxicity & viability analysis (cellular model of Huntington's disease); format: cell-based, rat; details: for M = Huntington's poly-Q toxicity attenuation: score; for K = Huntington's poly-Q toxicity attenuation: summary score
How it was run: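 Readout is CellTiter-Glo ATP content measured after 48 hrs. Cells are a PC12 line stably expressing inducible poly(Q)103-Htt-EGFP, where induction produces toxic aggregates.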

FOXO3 = experiment: qPCR analysis of FOXO3-regulated genes; format: cell-based, human; details: for fold induction at 10 µM: Homo sapiens; for K = Sestrin induction: score
How it was run: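 FOXO3 target-gene expression quantified by qPCR normalised to B2M, PPIA and GAPDH, in WI-38 cells after 24 h exposure to 10 μM compound. Some runs used cells first transfected 36 h with 10 nM FOXO3 or NRF2 siRNA and replated ~24 h before dosing.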

WI-38 cells = details: no H2O2 stress, 10 uM; negative control 0.41% ± 0.23%
Protocol: WI-38 cells were seeded on 384-well plates for 24 hrs and then incubated with small molecules for 24 hrs. […] Images were collected on an INCell Analyzer 2000 (GE) and analyzed with the Developer software.

[2] = 24 h, Assay 10(m), at 10 uM, qPCR, read-out: Induction of FOXO3-regulated genes: DDB1 normalized fold-change
[3] = 24 h, Assay 10(m), at 10 uM, qPCR, read-out: Induction of FOXO3-regulated genes: TXNIP normalized fold-change
[4] = 10 μM, 24 hrs, WI-38 cells, qPCR, normalized to B2M, n = 4, read-out: CAT expression, normalized fold change (FOXO3-regulated gene)
[5] = 10 μM, 24 hrs, WI-38 cells, qPCR, normalized to B2M, n = 4, read-out: TXNIP expression, normalized fold change (FOXO3-regulated gene)
[6] = WI-38 cells, 10 μM, 24 hrs, n=4, qPCR normalized by B2M, read-out: DDB1 Normalized fold change
[7] = WI-38 cells, 10 μM, 24 hrs, n=4, qPCR normalized by B2M, read-out: GADD45A Normalized fold change
[8] = WI-38 cells, 10 μM, 24 hrs, n=4, qPCR normalized by B2M, read-out: SESN1 Normalized fold change
[9] = fold change, qPCR, WI-38 cells, 10 μM, 24 hrs, read-out: Summary of effects on FOXO3-regulated genes: CAT
[10] = fold change, qPCR, WI-38 cells, 10 μM, 24 hrs, read-out: Summary of effects on FOXO3-regulated genes: TXNIP
[11] = qPCR, WI-38 cells, 10 μM, n=4, 24 hrs, normalized by B2M, read-out: CAT Normalized fold change
[12] = qPCR, WI-38 cells, 10 μM, n=4, 24 hrs, normalized by B2M, read-out: SOD2 Normalized fold change
[13] = qPCR, WI-38 cells, 10 μM, n=4, 24 hrs, normalized by B2M, read-out: TXNIP Normalized fold change

T1 sequence (P09874 whole entry): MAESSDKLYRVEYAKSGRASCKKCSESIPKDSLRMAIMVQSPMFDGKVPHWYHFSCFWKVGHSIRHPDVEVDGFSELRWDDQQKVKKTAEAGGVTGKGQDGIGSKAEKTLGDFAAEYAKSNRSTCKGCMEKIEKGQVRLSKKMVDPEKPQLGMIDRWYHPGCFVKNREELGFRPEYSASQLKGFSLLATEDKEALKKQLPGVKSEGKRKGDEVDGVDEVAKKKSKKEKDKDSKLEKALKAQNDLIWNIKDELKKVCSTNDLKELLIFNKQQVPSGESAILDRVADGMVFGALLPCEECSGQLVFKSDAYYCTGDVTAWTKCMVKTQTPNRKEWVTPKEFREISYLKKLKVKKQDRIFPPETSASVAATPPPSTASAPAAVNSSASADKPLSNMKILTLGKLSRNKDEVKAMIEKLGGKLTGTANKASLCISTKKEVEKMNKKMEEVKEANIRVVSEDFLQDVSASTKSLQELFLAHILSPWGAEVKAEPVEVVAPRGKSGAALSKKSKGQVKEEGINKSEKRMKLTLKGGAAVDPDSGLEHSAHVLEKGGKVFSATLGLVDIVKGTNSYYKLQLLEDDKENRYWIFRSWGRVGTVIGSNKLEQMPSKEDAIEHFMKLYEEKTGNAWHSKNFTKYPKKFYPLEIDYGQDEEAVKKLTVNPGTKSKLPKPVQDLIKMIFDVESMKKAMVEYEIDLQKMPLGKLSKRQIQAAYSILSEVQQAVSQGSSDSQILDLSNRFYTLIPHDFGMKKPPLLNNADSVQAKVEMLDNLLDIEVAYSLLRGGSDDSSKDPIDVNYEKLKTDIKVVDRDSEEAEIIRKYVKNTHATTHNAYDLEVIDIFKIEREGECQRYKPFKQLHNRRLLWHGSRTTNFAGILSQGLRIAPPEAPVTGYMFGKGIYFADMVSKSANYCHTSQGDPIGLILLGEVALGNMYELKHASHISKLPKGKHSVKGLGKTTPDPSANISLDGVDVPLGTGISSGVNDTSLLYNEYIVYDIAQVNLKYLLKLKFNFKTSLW

Compound	L = PARP inhibition (human PARP1)	Potential targets: human protein targets (confirmed) (human protein targets)	M = Huntington's poly-Q toxicity attenuation [1]	K = Huntington's poly-Q toxicity attenuation [1]	E = Potential FOXO3 Activation (FOXO3; 2-point score)	fold induction at 10 µM (FOXO3; [2])	fold induction at 10 µM (FOXO3; [3])	fold induction at 10 µM (FOXO3; [4])	fold induction at 10 µM (FOXO3; [5])	fold induction at 10 µM (FOXO3; [6])	fold induction at 10 µM (FOXO3; [7])	fold induction at 10 µM (FOXO3; [8])	fold induction at 10 µM (FOXO3; [9])	fold induction at 10 µM (FOXO3; [10])	fold induction at 10 µM (FOXO3; [11])	fold induction at 10 µM (FOXO3; [12])	fold induction at 10 µM (FOXO3; [13])	K = Sestrin induction (FOXO3)	E = Potential FOXO3 Activation (FOXO3; summary score)	Percentage of propidium iodide-positive dead cells (no H2O2 stress treatment), at 10 uM (WI-38 cells)	further results
O=[N+]([O-])c1ccccc1S(=O)(=O)Nc1cccc2cccnc12 [Gr-3A]	0	ADRBK1, APLNR, BARD1, BAZ2B, BRCA1, CCR6, DRD3, GMNN, IL1B,; also recorded: MDM2, MDM4, NFE2L2, NFKBIA, NOD1, NOD2, OPRK1, RBBP8, RELA,; also recorded: SIX1, SMAD3, TDP1	0	0	0	0.81	0.64	0.87	0.75	0.969	1.4	1.18	0.87	0.75	0.871	1.48	0.754	0	0	0.54% ± 0.16%,	fold induction at 10 µM (FOXO3; 24 h, Assay 10(m), at 10 uM, qPCR, read-out: Induction of FOXO3-regulated genes: CAT normalized fold-change): 0.83; fold induction at 10 µM (FOXO3; 24 h, Assay 10(m), at 10 uM, qPCR, read-out: Induction of FOXO3-regulated genes: SESN1 normalized fold-change): 1.21; fold induction at 10 µM (FOXO3; 10 μM, 24 hrs, WI-38 cells, qPCR, normalized to B2M, n = 4, read-out: SESN1 expression, normalized fold change (FOXO3-regulated gene)): 1.18; fold induction at 10 µM (FOXO3; fold change, qPCR, WI-38 cells, 10 μM, 24 hrs, read-out: Summary of effects on FOXO3-regulated genes: SESN1): 1.18
Oc1ncnc2sc3c(c12)CCC3 [O14]	1	TRHR	0	0	0		1.27		1.39	1.08	1.2	1.14		1.39	1.03	1.27	1.39	0	0	0.41% ± 0.22%,	Inhibition of PARP1 (human PARP1; 10 μM, in vitro): inhibitors of PARP1; also recorded: identified PARP inhibitor; Induction of at least two of five FOXO3-regulated genes (SOD2, GADD45A, CAT, DDB1, TXNIP) (FOXO3; 10 μM, 24 hrs, WI-38): significant induction; fold induction at 10 µM (FOXO3; 24 h, Assay 10(m), at 10 uM, qPCR, read-out: Induction of FOXO3-regulated genes: SOD2 normalized fold-change): 1.06
Nc1ccccc1S(=O)(=O)Nc1cccc2cccnc12 [Gr-3C]	0	GAPDH, NFKBIA, RELA	0	0	0	0.79		0.87		0.985	1.16	1.09	0.87		0.868	1.2	1.03	0	0	0.57% ± 0.24%,	
